Measurements: US9999626B2, “Mineral amino-acid complexes of active agents” (Thetis Pharmaceuticals LLC, priority 2014, dated 2018)

Experiments:
[1] = Physical Stability Study (proton NMR after storage exposed to air); format: physicochemical; settings: room temperature
From the text: FIG. 1: […] NMR spectrum of magnesium bis-lysinate bis-EPA taken on the day the compound was synthesized (upper trace) and 60 days later (lower trace) with the compound having been exposed to air at room temperature for the entire 60-day period.
Since the compounds of Formula IA and IB, and the compositions comprising same or mixtures of same, described herein are solids (not oils) and they are very stable against oxidative degradation of the fatty acid component, particularly when compared to the free fatty acid or fatty acid ester forms of the fatty acids, which are highly susceptible to oxidative degradation in their liquid forms and consequently tend to degrade when exposed to air or humidity. […] This is evidenced, for example by no significant change in physical properties, such as flow characteristics, or in chemical properties, as measured by NMR spectroscopy, following days of storage in an open vial at room temperature and standard humidity, for example following from about 7 to 14 days or up to 30, up to 60, or up to 90 days of storage.
The compounds of the invention are remarkably stable compared to omega-3 polyunsaturated free fatty acids, which typically show evidence of oxidative degradation with hours of exposure to atmospheric oxygen. […]

[2] = design: species or system rats; settings: rat, in vivo, po
From the text: The results of a single dose, oral pharmacokinetic study in rats for a compound of Formula III (designated TP-252, Mg-Lys2-EPA2) are shown in Table 3 below. One of the parameters shown in […] is the area under the curve (AUC), which is the integral of a plot of concentration of drug in blood plasma against time. The AUC is proportional to the total amount of the active pharmaceutical agent (API) that reaches the blood circulation. In this example, the API (or analyte) is EPA. AUC and Cmax are given for the compound of Formula III, EPA free fatty acid (EPA FFA), and EPA ethyl ester (EPA EE). EPA ethyl ester is the FDA-approved form of EPA.

In the case of CC/C=C\C/C=C\C/C=C\C/C=C\C/C=C\CCCC(=O)O.CC/C=C\C/C=C\C/C=C\C/C=C\C/C=C\CCCC(=O)O.NCCCC[C@H](N)C(=O)[O-].NCCCC[C@H](N)C(=O)[O-].[Mg+2] [TP-252, Magnesium Bis-Lysinate Bis-EPA Dihydrate], the “chemically stable (no evidence of oxidation or degradation by proton NMR)” value [1] is reported as “at least 60 days” and the “EPA delivered to the blood plasma compared with equivalent doses of EPA free fatty acid or EPA ethyl ester” value [2] is reported as “significantly more EPA”.
